Assay results as given in ChEMBL document CHEMBL1857833, “Screening and optimization of specific chemical series against human African Trypanosomiasis (HAT)”.
Values after ≈ are worked out from the molar mass of the structure shown. Values joined by “and” are separate entries in the source; they are usually repeats but may differ in a detail not shown here. Equal entries are not always repeated.

Tests used:
[1] = DNDI: Cytotoxicity against L929 mouse fibroblasts, CYTO-SP, 24 hour; type: toxicity, cell-based; conditions: mouse, L929 mouse fibroblasts
[2] = tested on: Trypanosoma brucei; test: DNDI: Inhibition of Human African Trypanosomiasis, SBRI 427, in vitro; type: functional, organism-based
[3] = DNDI: Cytotoxicity against L929 mouse fibroblasts, 72 hour.; type: toxicity, cell-based; conditions: mouse, L929 mouse fibroblasts
[4] = Trypanosoma brucei, SBRI 427, read-out: IC50

| Structure (SMILES) | IC50 [2, 4] | IC50 [2] | IC50 at 24 h [1] | IC50 at 72 h [3] |
| --- | --- | --- | --- | --- |
| Fc1ccccc1Oc1ncccc1CNC1CCCCC1 | > 5 µg/mL | – | > 50 µg/mL | – |
| C[C@@H]1[C@@H](N/C(=N\O)c2ccccc2-c2ccccc2)C[C@H]2C[C@@H]1C2(C)C | > 5 µg/mL | – | 17 µg/mL (≈ 48.8 µM) | – |
| CCOc1ccccc1CN/C(=N\O)c1cccnc1Oc1ccc(CC)cc1 | 0.76 µg/mL (≈ 1.94 µM) | – | > 50 µg/mL | – |
| CON(C)C(=O)c1ccccc1-c1ccccc1 | > 5 µg/mL | – | > 50 µg/mL | – |
| C(=N\OCc1ccccc1)/c1ccccc1-c1ccccc1 | > 5 µg/mL | – | > 50 µg/mL | – |
| CC1CC(N/C(=N\O)c2cccnc2Oc2c(F)cccc2F)CC(C)(C)C1 (stereo not given) | 1.12 µg/mL (≈ 2.88 µM) | – | 31.5 µg/mL (≈ 80.9 µM) | – |
| N#Cc1cccnc1Oc1ccccc1Br | > 5 µg/mL | – | > 50 µg/mL | – |
| CC1CCC(N/C(=N\O)c2cccnc2Oc2ccc(F)cc2Cl)CC1 (stereo not given) | – | – | 28 µg/mL (≈ 74.1 µM) | – |
| COc1ccc(C(=O)NC2CCCCC2)cc1 | > 5 µg/mL | – | > 50 µg/mL | – |
| Cc1ccc(Oc2ccc(/C(=N/O)NCC3CC3)cn2)c(C)c1 | – | – | > 50 µg/mL | – |
| N/C(=N/O)c1cccnc1Oc1cccc2ccccc12 | > 5 µg/mL | – | > 50 µg/mL | – |
| CC(C)COc1ncccc1/C(=N/O)NC1CCCC1 | 0.96 µg/mL (≈ 3.46 µM) | – | > 50 µg/mL | – |
| CC(C)CO/N=C/c1ccccc1-c1ccccc1 | > 5 µg/mL | – | > 50 µg/mL | – |
| O/N=C(\NC1CCC1)c1cccnc1Oc1ccc2c(c1)CCCC2 | 0.19 µg/mL (≈ 0.563 µM) | – | > 50 µg/mL | – |
| CCOc1ccccc1CN/C(=N\O)c1cccnc1Oc1ccccc1SC | – | – | > 50 µg/mL | – |
| COc1ccccc1Oc1ncccc1/C(=N/O)NC1CCCC1 | – | – | > 50 µg/mL | – |
| COc1ccc(Oc2ncccc2/C(=N/O)NCC(C)(C)C)cc1 | 0.18 µg/mL (≈ 0.546 µM) | – | > 50 µg/mL | – |
| COc1ccc(C(=O)Cc2ccccc2)cc1 | > 5 µg/mL | – | > 50 µg/mL | – |
| O=C(NC1CCCCC1)c1cccnc1Cl | > 5 µg/mL | – | > 50 µg/mL | – |
| COc1cc(C)ccc1Oc1ncccc1/C(N)=N/O | > 5 µg/mL | – | > 5 µg/mL | – |
| CC(C)c1ccc(Oc2ncccc2/C(=N/O)NCc2cccs2)cc1 | 0.89 µg/mL (≈ 2.42 µM) | – | > 50 µg/mL | – |
| O/N=C(\NC1CCCC1)c1ccc(Oc2cc(Cl)ccc2Cl)nc1 | 1.08 µg/mL (≈ 2.95 µM) | – | 28.8 µg/mL (≈ 78.6 µM) | – |

| Structure (SMILES) | IC50 [2, 4] | IC50 [2] | IC50 at 24 h [1] | IC50 at 72 h [3] |
| --- | --- | --- | --- | --- |
| COc1ccc(/C(=N/O)NCC2CCCCC2)cc1 | 3.41 µg/mL (≈ 13 µM) | – | > 50 µg/mL | – |
| O=C(NC1CCCCC1)c1cccnc1Oc1ccccc1Cl | > 5 µg/mL | – | > 50 µg/mL | – |
| O/N=C(\NC1CCC1)c1cccnc1OCC1CCCCC1 | 0.64 µg/mL (≈ 2.11 µM) | – | > 50 µg/mL | – |
| CCC(CC)N/C(=N\O)c1ccc(C)nc1Oc1ccc(C)cc1OC | – | – | > 50 µg/mL | – |
| CC1CCC(N/C(=N\O)c2cccnc2Oc2ccc(-n3cncn3)cc2)CC1 (stereo not given) | – | – | > 50 µg/mL | – |
| COc1cc(C)ccc1Oc1nc(C)ccc1/C(=N/O)NCC1CC1 | – | – | > 50 µg/mL | – |
| CC(C)(C)COc1ncccc1/C(=N/O)N1CCCc2ccccc21 | – | – | 26 µg/mL (≈ 76.6 µM) | – |
| COc1cc(C)ccc1Oc1nc(C)ccc1/C(=N/O)NCC(C)C | – | – | > 50 µg/mL | – |
| Cc1ccc(/C(=N/O)NCC(C)(C)C)c(Oc2ccc3ccccc3c2)n1 | – | – | 34 µg/mL (≈ 93.5 µM) | – |
| Cc1ccc(/C(=N/O)NCC(C)(C)C)c(Oc2cc(Cl)ccc2Cl)n1 | – | – | 27 µg/mL (≈ 70.6 µM) | – |
| Cc1cc(Oc2ccc(/C(=N/O)NCC3CC3)cn2)cc(C(C)C)c1 | – | – | 27 µg/mL (≈ 79.5 µM) | – |
| Cc1cc(NCCN2CCCCC2)n2nc(-c3cccc(F)c3)cc2n1 | > 5 µg/mL | – | – | > 10 µg/mL |
| Cc1cc(NC2CCN(C(=O)OC(C)(C)C)C2)n2nc(-c3cccc(F)c3)cc2n1 (stereo not given) | > 5 µg/mL | – | – | > 10 µg/mL |
| CN(C)CC(C)(C)CNc1cc(-c2ccccc2)nc2cc(-c3ccc(F)cc3)nn12 | > 5 µg/mL | – | – | > 10 µg/mL |
| Cc1ccc(/C(=N/O)NC2CCC(C)CC2)c(OCc2ccccn2)n1 (stereo not given) | – | – | > 50 µg/mL | – |
| Cc1cc2[nH]c(-c3ccccc3)cc(=O)n2n1 | > 5 µg/mL | – | – | > 10 µg/mL |
| Cc1ccc(CNC(c2nc(Cc3ccccc3)c(N3CCOCC3)o2)C2CC2)cc1 (stereo not given) | > 5 µg/mL | – | – | > 10 µg/mL |
| Cc1cc(N2CCN(C(=O)OC(C)(C)C)CC2)n2nc(-c3cccc(F)c3)cc2n1 | > 5 µg/mL | – | – | > 10 µg/mL |
| C#[N+]C(C(=O)N1CCOCC1)C(C)C (stereo not given) | > 5 µg/mL | – | – | > 10 µg/mL |
| Fc1cccc(-c2cc3nc(-c4ccccc4)cc(NCCN4CCCCC4)n3n2)c1 | 3.82 µg/mL (≈ 9.19 µM) | – | – | 9.91 µg/mL (≈ 23.8 µM) |
| c1ccc(-c2nc(C(NCCCn3ccnc3)C3CC3)oc2N2CCOCC2)cc1 (stereo not given) | > 5 µg/mL | – | – | > 10 µg/mL |
| c1ccc(Cc2nc(C(NCc3ccc4c(c3)OCO4)C3CC3)oc2N2CCOCC2)cc1 (stereo not given) | > 5 µg/mL | – | – | > 10 µg/mL |

Continued, in another order:

| IC50 [2, 4] | IC50 [2] | Structure (SMILES) | IC50 at 24 h [1] | IC50 at 72 h [3] |
| --- | --- | --- | --- | --- |
| – | 1.84 µg/mL and 0.87 µg/mL | CCCCNCc1coc(-c2ccc(C(C)(C)C)cc2)n1 | 28.1 µg/mL (≈ 98.1 µM) | – |
| 0.96 µg/mL (≈ 2.73 µM) | – | CC(C)c1ccc(Oc2ncccc2/C(=N/O)NCc2ccco2)cc1 | > 50 µg/mL | – |
| 0.31 µg/mL (≈ 0.924 µM) | – | CCC(CC)N/C(=N\O)c1cccnc1Oc1c(F)cccc1F | > 50 µg/mL | – |
| 0.78 µg/mL (≈ 2.37 µM) | – | CCC(CC)N/C(=N\O)c1cccnc1Oc1ccc(OC)cc1 | > 50 µg/mL | – |
| 0.34 µg/mL (≈ 0.951 µM) | – | CCCCc1ccc(-c2nc(CNCCCN3CCOCC3)co2)cc1 | – | 2.08 µg/mL (≈ 5.82 µM) |
| > 5 µg/mL | – | CC(C)COc1ccc(-c2nc(CNCCCN(C)C)co2)cc1 | – | > 10 µg/mL |
| 3.13 µg/mL (≈ 10.3 µM) | – | COc1ccc(-c2nc(CNCCCN(C)C)c(C)o2)cc1 | – | > 10 µg/mL |
| > 5 µg/mL | – | CCCCc1ccc(-c2nc(C)c(C(C)=O)o2)cc1 | – | > 10 µg/mL |
| 0.41 µg/mL (≈ 1.31 µM) | – | CCCCc1ccc(-c2nc(CNC3CCCCC3)co2)cc1 | – | 1.44 µg/mL (≈ 4.61 µM) |
| 0.74 µg/mL (≈ 2.46 µM) | – | CCCCCC(C)NCc1coc(-c2ccc(C)c(C)c2)n1 (stereo not given) | – | 1.86 µg/mL (≈ 6.19 µM) |
| > 5 µg/mL | – | CCCCc1ccc(-c2nc(-c3cc(-c4ccccc4)no3)co2)cc1 | – | > 10 µg/mL |
| 0.38 µg/mL (≈ 0.958 µM) | – | CCCCCC(C)NCc1coc(-c2ccc(OCc3ccc(F)cc3)cc2)n1 (stereo not given) | – | 0.95 µg/mL (≈ 2.4 µM) |
| 2.54 µg/mL (≈ 9.12 µM) | – | CCCCCC(C)NCc1coc(C2CCCCC2)n1 (stereo not given) | – | 10 µg/mL (≈ 35.9 µM) |
| > 5 µg/mL | – | Cc1cc(NCCCN(C)C)n2nc(-c3cccc(F)c3)cc2n1 | – | > 10 µg/mL |
| > 5 µg/mL | – | CCCCc1ccc(-c2nc(CN3CCN(c4ccccc4)CC3)co2)cc1 | – | > 10 µg/mL |
| 1.02 µg/mL (≈ 2.96 µM) | – | CCCCCC(C)NCc1coc(-c2cccc(OCCCC)c2)n1 (stereo not given) | – | 1.7 µg/mL (≈ 4.93 µM) |
| 3.05 µg/mL (≈ 11.3 µM) | – | CCCCc1ccc(-c2nc(CNC3CC3)co2)cc1 | – | 7.55 µg/mL (≈ 27.9 µM) |
| 2.46 µg/mL (≈ 7.62 µM) | – | CCCCCC(C)NCc1coc(-c2cc(Cl)ccc2O)n1 (stereo not given) | – | 2.33 µg/mL (≈ 7.22 µM) |
| 2.01 µg/mL (≈ 5.65 µM) | 1.48 µg/mL (≈ 4.16 µM) | CCCCc1ccc(-c2nc(CNCCCN3CCCCC3)co2)cc1 | – | 6.2 µg/mL (≈ 17.4 µM) |
| 1.18 µg/mL (≈ 2.99 µM) | 2.27 µg/mL (≈ 5.76 µM) | Cc1ccc(/C(=N/O)NC2CCCCC2)c(Oc2cc(Cl)ccc2Cl)n1 | – | > 10 µg/mL |
| > 5 µg/mL | – | CCCCc1ccc(-c2nc(CN3CCN(C(=O)OC(C)(C)C)CC3)co2)cc1 | – | > 10 µg/mL |
| > 5 µg/mL | – | CCN(CC)CCCNc1cc(C)nc2cc(-c3cccc(F)c3)nn12 | – | > 10 µg/mL |
| > 5 µg/mL | – | CN(C)CCCNCc1coc(-c2ccc(OCCc3ccccc3)cc2)n1 | – | > 10 µg/mL |
| 2.32 µg/mL (≈ 7.02 µM) | – | CCCCCC(C)NCc1coc(-c2cc(C(C)=O)ccc2O)n1 (stereo not given) | – | 3.47 µg/mL (≈ 10.5 µM) |
